Reference: patent US11298356B1, “Amorphous solid dispersions of dasatinib and uses thereof” (NANOCOPOEIA, LLC, priority 2020, dated 2022)
Values after ≈ are worked out from the molar mass of the structure shown.

Columns and labels:
[1] = Aqueous solubility of dasatinib (internal experimentation); format: physicochemical; conditions: aqueous medium
Excerpt: Dasatinib in crystalline forms is categorized as a Biopharmaceutical Classification System (“BCS”) Class II (low solubility/high permeability) compound. […] A preparation of dasatinib in a form that is intended to enhance its solubility could increase its bioavailability. One approach for enhancing solubility is to produce an amorphous solid dispersion.

[2] = crystalline forms; low solubility/high permeability; cited from earlier work
[3] = Comparative Example; promptly after spray drying and drying
Description: (§1) Each of the resulting ASDs was placed on stability under accelerated conditions at 40° C./75% RH. The ASDs were assessed at t=0 (i.e., after the secondary drying step), 2 weeks, 1 month, 2 months, 3 months, and 6 months for appearance, amorphicity, glass transition temperature, water content, and assay/total impurities.
Amorphicity (i.e., the lack of crystallinity) for the ASDs was assessed by XRD. Diffraction patterns were obtained using a Rigaku MiniFlex 600. The X-ray source was a long anode Cu Kα. Samples were prepared by placing a small amount of ASD powder on a Rigaku zero-background sample holder with a 0.1 mm indent. A glass slide was then used to firmly pack the powder and ensure the surface of the sample was level with the edge of the sample holder.
Rigaku Data Analysis Software PDXL 2.4.2.0 was used to determine crystallinity. Briefly, a linear background was obtained by connecting the beginning and end of each diffractogram. Peaks were then fitted to split pseudo-Voigt shape by the Lorentzian function. Generally, narrow peaks with full width at half maximum (FWHM) less than 1° were assigned as crystalline phase. If no crystalline phase was detected, the sample was deemed to be amorphous.

[4] = Comparative Example; promptly after preparation
Description: as §1
In general, about 5-10 mg of ASD powder was loaded in a TA Tzero low-mass aluminum pan and sealed with a Tzero lid.

Row | solubility ([1]; pH 2, simulated gastric fluid) [µg/mL] | solubility ([1]; pH 6.2, aqueous buffer) [µg/mL] | XRD crystallinity [3] | glass transition temperature (Tg) [4] [°C] | Structure (SMILES) | Biopharmaceutical Classification System (BCS) class [2]
1 | ~1400 (≈ 2870 µM) | < 1 | – | – | Cc1nc(Nc2ncc(C(=O)Nc3c(C)cccc3Cl)s2)cc(N2CCN(CCO)CC2)n1 [Dasatinib, N-(2-chloro-6-methylphenyl)-2-[[6-[4-(2-hydroxyethyl)-1-piperazinyl]-2-methyl-4-pyrimidinyl]amino]-5-thiazolecarboxamide] | Class II
2 | – | – | exhibited crystalline character | 125.61 | Cc1nc(Nc2ncc(C(=O)Nc3c(C)cccc3Cl)s2)cc(N2CCN(CCO)CC2)n1 [spray-dried material of 100% dasatinib] | –
